Values of other authors as cited in patent US20040167415A1, “Method and system for prevention of radiocontrast nephropathy” (PLC Systems Inc., priority 2003, published 2004).

What was measured:
[1] = 70 kg adult patient; according to the manufacturer Nycomed Amersham
[2] = in 12 hours; healthy people; Edelson et al, J Pharm Sci 1984

## CC(=O)N(CC(O)CO)c1c(I)c(C(=O)NCC(O)CO)c(I)c(C(=O)NCC(O)CO)c1I (centres unmarked) [iohexol]
[1]
  total volume of distribution: approximately 18 liters
[2]
  contrast eliminated from the body in urine by kidneys: 90%
